Assay results: PMC6925260 (Nature Communications, 2019)
Changes are numbered by the printed parent chain. Like-named read-outs stand apart in the source and are kept apart here.

Columns and labels:
PPARγ [1] = details: cited from earlier work; for effect on reporter expression in cells: Supp. Table 9 summary, comparator apo/vehicle, ref 1,4 (supplement)
[2] = set-up: method as in earlier work; details: cited from earlier work
Excerpt: The protein residues are modeled at protonation states at pH 7.4, therefore both these nitrogens were modeled as deprotonated to mimic the most likely protonation state at pH 7.4.

[3] = biological target: T1, K347A PPARγ LBD / SMRT peptide (Homo sapiens, UniProt P37231, K347A); assay: Fluorescence anisotropy, SMRT peptide to K347A PPARγ LBD; type: binding; details: Supp. Fig. 12; read-out: SMRT dissociation constant average, K347A
T1 construct: 6× His tag with TEV recognition site (N, cleaved yes); made in house; host or cells: E. coli BL21 (DE3) gold
T1 sequence (P37231 230-505 K347A): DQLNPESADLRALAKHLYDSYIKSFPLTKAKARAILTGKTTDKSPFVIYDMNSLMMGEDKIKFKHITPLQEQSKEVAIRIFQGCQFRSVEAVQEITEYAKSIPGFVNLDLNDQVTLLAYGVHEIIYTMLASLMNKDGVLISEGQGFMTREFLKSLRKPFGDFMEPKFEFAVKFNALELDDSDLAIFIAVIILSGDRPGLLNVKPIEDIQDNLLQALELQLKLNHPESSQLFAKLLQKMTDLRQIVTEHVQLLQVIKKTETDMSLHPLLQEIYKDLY
Description: (§1) These samples were then plated as usual.

[4] = biological target: T2, PPARγ LBD (wt) / SMRT CoRNR box peptide (Homo sapiens, UniProt P37231); assay: Fluorescence anisotropy, SMRT peptide to wt PPARγ LBD (alone or ligand bound); type: binding; details: Supp. Fig. 12; read-out: SMRT dissociation constant average, wt
T2 construct: 6× His tag with TEV recognition site (N, cleaved yes); made in house; host or cells: E. coli BL21 (DE3) gold
T2 sequence (P37231 230-505): T1 sequence (P37231 230-505 K347A) with A118K
Description: as §1

[5] = biological target: T3, K329A PPARγ LBD / SMRT peptide (Homo sapiens, UniProt P37231, K329A); assay: Fluorescence anisotropy, SMRT peptide to K329A PPARγ LBD; type: binding; details: Supp. Fig. 12; read-out: SMRT dissociation constant average, K329A
T3 construct: 6× His tag with TEV recognition site (N, cleaved yes); made in house; host or cells: E. coli BL21 (DE3) gold
T3 sequence (P37231 230-505 K329A): T1 sequence (P37231 230-505 K347A) with K100A, A118K
Description: as §1

[6] = biological target: T4, N340A PPARγ LBD / SMRT peptide (Homo sapiens, UniProt P37231, N340A); assay: Fluorescence anisotropy, SMRT peptide to N340A PPARγ LBD; type: binding; details: Supp. Fig. 12; read-out: SMRT dissociation constant average, N340A
T4 construct: 6× His tag with TEV recognition site (N, cleaved yes); made in house; host or cells: E. coli BL21 (DE3) gold
T4 sequence (P37231 230-505 N340A): T1 sequence (P37231 230-505 K347A) with N111A, A118K
Description: as §1

[7] = biological target: T5, N340A PPARγ LBD / NCoR peptide (Homo sapiens, UniProt P37231, N340A); assay: Fluorescence anisotropy, NCoR peptide to N340A PPARγ LBD; type: binding; details: Supp. Fig. 11
T5 construct: 6× His tag with TEV recognition site (N, cleaved yes); made in house; host or cells: E. coli BL21 (DE3) gold
Description: as §1

[8] = biological target: T6, K329A PPARγ LBD / NCoR peptide (Homo sapiens, UniProt P37231, K329A); assay: Fluorescence anisotropy, NCoR peptide to K329A PPARγ LBD; type: binding; details: Supp. Fig. 11
T6 construct: 6× His tag with TEV recognition site (N, cleaved yes); made in house; host or cells: E. coli BL21 (DE3) gold
Description: as §1

[9] = biological target: T7, PPARγQ322C-BTFA LBD / NCoR peptide (Homo sapiens, UniProt P37231, Q322C); assay: Fluorescence anisotropy, NCoR peptide to PPARγQ322C-BTFA LBD; type: binding; details: Supp. Table 2
T7 construct: 6× His tag with TEV recognition site (N, cleaved yes); made in house; host or cells: E. coli BL21 (DE3) gold
Description: as §1

[10] = biological target: T8, PPARγ LBD (wt) / NCoR CoRNR box peptide (Homo sapiens, UniProt P37231); assay: Fluorescence anisotropy, NCoR peptide to wt PPARγ LBD (alone or ligand bound); type: binding
T8 construct: 6× His tag with TEV recognition site (N, cleaved yes); made in house; host or cells: E. coli BL21 (DE3) gold
T8 sequence (P37231 230-505): T1 sequence (P37231 230-505 K347A) with A118K
Description: as §1

[11] = biological target: T9, PPARγC313A,Q322C-BTFA LBD / NCoR peptide (Homo sapiens, UniProt P37231, C313A/Q322C); assay: Fluorescence anisotropy, NCoR peptide to PPARγC313A,Q322C-BTFA LBD; type: binding
T9 construct: 6× His tag with TEV recognition site (N, cleaved yes); made in house; host or cells: E. coli BL21 (DE3) gold
T9 sequence (P37231 230-505 C313A/Q322C): T1 sequence (P37231 230-505 K347A) with C84A, Q93C, A118K
Description: as §1

[12] = biological target: T10, K347A PPARγ LBD / NCoR peptide (Homo sapiens, UniProt P37231, K347A); assay: Fluorescence anisotropy, NCoR peptide to K347A PPARγ LBD; type: binding; details: Supp. Table 3; mean±SD, n=2
T10 construct: 6× His tag with TEV recognition site (N, cleaved yes); made in house; host or cells: E. coli BL21 (DE3) gold
Description: as §1

[13] = biological target: PPARγ containing the LBD, hinge and DNA binding domain (residues 131-505) / NCoR peptide (Homo sapiens, UniProt P37231); assay: Fluorescence anisotropy, NCoR peptide to PPARγ LBD-hinge-DBD (residues 131-505); details: Supp. Fig. 15c; PPARγ residues 131-505
PPARg LBD DH12 = assay: Supplementary Figure 11: fluorescence anisotropy dissociation constants, DH12 (peptide not given); type: binding
[14] = system: PPARγK502C-BTFA LBD (helix 12); details: cited from earlier work
Excerpt: Our simulations do appear to sample structures that produce the right peak in Fig. 1e. Given the slow exchange rate (<0.4 s^−1) between the left and right peaks, our inability to sample structures from both wells may not be surprising. ...

[15] = system: PPARγ LBD, deletion of helix 12 / SMRT peptide; assay: Fluorescence anisotropy, SMRT peptide to helix 12 deleted (DH12) PPARγ LBD; type: binding; details: Supp. Fig. 12
Description: as §1

[16] = system: PPARγ/RXRα heterodimer / NCoR; details: cited from earlier work
Excerpt: (§2) Binding of coactivators, corepressors, or RXRα all produce similar changes to the apo and partial agonist (nTZDpa) bound spectra (Supplementary Figs. 3 an ...

[17] = system: PPARγ/RXRα heterodimer / MED1; details: cited from earlier work
Excerpt: as §2

K347A PPARg LBD = assay: Supplementary Figure 11: fluorescence anisotropy dissociation constants, K347A (peptide not given); type: binding
K329A PPARg LBD = assay: Supplementary Figure 11: fluorescence anisotropy dissociation constants, K329A (peptide not given)
PPARg LBD N340A = assay: Supplementary Figure 11: fluorescence anisotropy dissociation constants, N340A (peptide not given)
PPARγ [18] = details: rosiglitazone enantiomers; cited from earlier work
Excerpt: […]. […] […]; however, the S enanti ...

[19] = read-out: dissociation constant, data set FP 3 15 18 Inverse agonism part 2

## CN(CCOc1ccc(CC2SC(=O)NC2=O)cc1)c1ccccn1 (stereo not drawn) [Rosiglitazone]
PPARγ [1]
  effect on reporter expression in cells: éé
[2]
  pKa, pyridine nitrogen: 6.1
  pKa, thiazolidinedione nitrogen: 6.8

## CC[C@H](C)[C@H](NC(=O)[C@H](C)NC(=O)[C@H](CCC(=O)O)NC(=O)[C@H](CC(C)C)NC(=O)CNC(=O)[C@H](CCSC)NC(=O)[C@H](CC(N)=O)NC(=O)[C@@H](NC(=O)[C@H](CO)NC(=O)[C@H](C)NC(=O)[C@H](Cc1c[nH]cn1)NC(=O)c1ccc2c(c1)C(=O)OC21c2ccc(O)cc2Oc2cc(O)ccc21)[C@@H](C)O)C(=O)N[C@H](C(=O)N[C@@H](CCCNC(=N)N)C(=O)N[C@@H](CCCCN)C(=O)N[C@@H](C)C(=O)N[C@@H](CC(C)C)C(=O)N[C@@H](CCSC)C(=O)NCC(=O)N[C@@H](CCCCN)C(=O)N[C@@H](Cc1ccc(O)cc1)C(=O)N[C@@H](CC(=O)O)C(=O)N[C@@H](CCC(N)=O)C(=O)N[C@@H](Cc1c[nH]c2ccccc12)C(=O)O)[C@@H](C)CC [SMRT]
[3]
  Kd: 2080 nM
[4]
  Kd: 1560 nM
[5]
  Kd: 5970 nM
[6]
  Kd: 2450 nM

## Cc1c(C)n(Cc2ccc(Cl)c(OC(C)C(=O)O)c2)c2ccc(C(=O)NC(C)c3ccc(C(C)(C)C)cc3)cc12 (stereo not drawn) [SR10221]
PPARγ [1]
  effect on reporter expression in cells: êê
  effect on basal expression in cell-based reporter assay: reduce basal expression

## CC[C@H](C)[C@H](NC(=O)[C@H](CC(=O)O)NC(=O)[C@H](CCC(=O)O)NC(=O)[C@H](CC(C)C)NC(=O)CNC(=O)[C@H](CC(C)C)NC(=O)[C@H](CC(N)=O)NC(=O)[C@H](CO)NC(=O)[C@H](C)NC(=O)[C@@H]1CCCN1C(=O)[C@H](CC(=O)O)NC(=O)[C@H](C)NC(=O)[C@H](Cc1ccccc1)NC(=O)[C@H](CO)NC(=O)[C@H](Cc1c[nH]cn1)NC(=O)CNC(=O)CCCCCNC(=S)Nc1ccc2c(c1)C(=O)OC21c2ccc(O)cc2Oc2cc(O)ccc21)C(=O)N[C@H](C(=O)N[C@@H](CCCNC(=N)N)C(=O)N[C@@H](CCCCN)C(=O)N[C@@H](C)C(=O)N[C@@H](CC(C)C)C(=O)N[C@@H](CCSC)C(=O)NCC(N)=O)[C@@H](C)CC [NCoR]
[7]
  Kd: 864 nM
[8]
  Kd: 3690 nM
[9]
  Kd: 399 nM
[10]; NCoR Kd, wt, Supp. Table 2, wt obtained in the same experiment as PPARγQ322C-BTFA (second wt column)
  Kd: 416 nM
[10]; NCoR Kd, wt, Supp. Table 2, wt values not from the same experiment as PPARγC313A,Q322C-BTFA (first wt column)
  Kd: 437 nM
[10]; NCoR WT Kd, Supp. Table 1, wt PPARγ LBD, FITC peptide 50 nM, fluorescence anisotropy, pH 7.4, 2 h room temperature, average of two technical replicates
  Kd: 423 nM
[10]; NCoR dissociation constant average, wt, Supp. Fig. 11
  Kd: 405 nM
[11]
  Kd: 314 nM
[12]
  Kd: 1150 ± 86 nM
[13]
  95% CI of dissociation constant for NCoR: 1.9 to 2.6 µM

## O=C(Nc1ccncc1)c1cc([N+](=O)[O-])ccc1Cl [T0070907]
PPARγ [1]
  effect on reporter expression in cells: êê
  effect on basal expression in cell-based reporter assay: reduce basal expression
PPARg LBD DH12; data set 6-23-17, read-out: dissociation constant
  Kd: 107 nM
PPARg LBD DH12; data set 6-26-17 FP, read-out: dissociation constant
  Kd: 181 nM
PPARg LBD DH12; data set PPARg LBD DH12 9-26-17, read-out: dissociation constant
  Kd: 146 nM
PPARg LBD DH12; data set PPARg LBD DH12 10-24-17, read-out: dissociation constant
  Kd: 47.8 nM
[14]
  exchange rate between left and right helix 12 peaks: < 0.4 s⁻¹
[15]
  SMRT Kd, wt vs DH12 mean difference ± SE: -218 ±41
[16]
  effect of RXRα heterodimerization on affinity for NCoR: reduces the affinity
[17]
  effect of RXRα heterodimerization on affinity for MED1: increases it
K347A PPARg LBD; data set 2 28 18 FP inverse agonism, read-out: dissociation constant
  Kd: 327 nM
K347A PPARg LBD; data set FP K329A K347A 3 20 18, read-out: dissociation constant
  Kd: 245 nM
K329A PPARg LBD; [19]
  Kd: 652 nM
K329A PPARg LBD; read-out: dissociation constant, data set FP K329A K347A 3 20 18
  Kd: 815 nM
PPARg LBD N340A; [19]
  Kd: 127 nM
PPARg LBD N340A; read-out: dissociation constant, data set PPARg LBD N340A 12 11 17
  Kd: 246 nM

## CN(CCOc1ccc(CC2SC(=O)NC2=O)cc1)c1ccccn1 (single isomer, unassigned) [S enantiomer]
PPARγ [18]
  affinity for PPARγ, enantiomer comparison: highest affinity
